Data set [1] concerns Escherichia coli. The data set can be described thus: Induction of Escherichia coli AB1157 DNA degradation after 1 hr by agarose gel electrophoresis.
The target in a further data set is Albumin (Bos taurus, UniProt P02769). The data set can be described thus: Induction of Bos taurus (bovine) serum albumin degradation after 1 hr by SDS-PAGE analysis. Conditions: cattle.
Data set [2] in a line: Antioxidant activity assessed as SOD-like activity measuring inhibition of superoxide radical production at 50 ug after 30 min by NBT reduction assay. It counts as functional.
The test system of data set [3] is Saccharomyces cerevisiae. Nature of the data set: Antimicrobial activity against Saccharomyces cerevisiae after 24 hr by CLSI liquid dilution method. Format: functional.
Data set [4] relates to Staphylococcus aureus. Nature of the data set: Antimicrobial activity against Staphylococcus aureus after 24 hr by CLSI liquid dilution method. Format: functional.
Data set [5] has as its system Pseudomonas aeruginosa. Nature of the data set: Antimicrobial activity against Pseudomonas aeruginosa after 24 hr by CLSI liquid dilution method. Format: functional.
The subject of data set [6] is Bacillus subtilis. Nature of the data set: Antimicrobial activity against Bacillus subtilis after 24 hr by CLSI liquid dilution method. Format: functional.
The subject of data set [7] is Escherichia coli. Nature of the data set: Antimicrobial activity against Escherichia coli after 24 hr by CLSI liquid dilution method. It counts as functional.
In data set [8] the test system is Saccharomyces cerevisiae. Nature of the data set: Antimicrobial activity against Saccharomyces cerevisiae at 100 ug after 24 hr by cup diffusion technique. It counts as functional. Conditions: read-out: DIZ.
In data set [9] the test system is Staphylococcus aureus. Nature of the data set: Antimicrobial activity against Staphylococcus aureus at 100 ug after 24 hr by cup diffusion technique. Format: functional. Conditions: read-out: DIZ.
The test system of data set [10] is Pseudomonas aeruginosa. Nature of the data set: Antimicrobial activity against Pseudomonas aeruginosa after 24 hr by cup diffusion technique. Format: functional.
Data set [11] relates to Bacillus subtilis. Nature of the data set: Antimicrobial activity against Bacillus subtilis at 100 ug after 24 hr by cup diffusion technique. It counts as functional. Conditions: read-out: DIZ.
In data set [12] the test system is Escherichia coli. The data set can be described thus: Antimicrobial activity against Escherichia coli at 100 ug after 24 hr by cup diffusion technique. It counts as functional. The following applies: read-out: DIZ.
Data set [13] is described as follows: Antioxidant activity assessed as DPPH scavenging activity at 50 ug after 30 min by spectrophotometry. Format: functional. For orientation: DPPH is a stable violet radical that fades when it is reduced.

The values below come from ChEMBL document CHEMBL3045539, “Synthesis, DNA affinity, and antimicrobial activity of 4-substituted phenyl-2,2-bichalcophenes and aza-analogues” (Med Chem Res, 2012).

The structures appear in SMILES notation. In brackets after ≈: the same amount, converted by molar mass. Activity calls are given as the source filed them. No cut-off for these calls is given here.

Chain of Albumin (P02769 whole entry): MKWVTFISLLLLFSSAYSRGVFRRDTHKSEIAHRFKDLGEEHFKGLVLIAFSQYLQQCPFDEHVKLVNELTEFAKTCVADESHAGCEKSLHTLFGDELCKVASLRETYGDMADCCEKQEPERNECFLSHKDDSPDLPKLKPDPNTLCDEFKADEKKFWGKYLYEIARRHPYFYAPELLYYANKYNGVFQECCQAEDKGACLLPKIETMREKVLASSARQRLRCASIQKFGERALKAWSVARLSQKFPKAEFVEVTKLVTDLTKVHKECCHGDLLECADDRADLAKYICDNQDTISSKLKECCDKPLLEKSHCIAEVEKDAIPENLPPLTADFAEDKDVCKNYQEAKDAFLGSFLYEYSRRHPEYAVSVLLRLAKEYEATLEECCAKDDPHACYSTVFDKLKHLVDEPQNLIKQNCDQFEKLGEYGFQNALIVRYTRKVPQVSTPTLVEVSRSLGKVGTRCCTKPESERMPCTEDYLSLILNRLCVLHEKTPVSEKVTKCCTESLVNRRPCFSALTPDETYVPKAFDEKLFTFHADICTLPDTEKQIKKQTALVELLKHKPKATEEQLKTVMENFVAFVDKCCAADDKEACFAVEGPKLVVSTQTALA

The inhibition is the percentage by which the read-out fell short of the control. What is called MIC is the least concentration at which growth counts as inhibited. `N#Cc1ccc(-c2ccc(-c3cccs3)o2)nc1` [6-[5-(THIOPHEN-2-YL)FURAN-2-YL]NICOTINONITRILE]: in the data set with Escherichia coli [1], the outcome was Active. Also, the result at Albumin was Active. In addition, the inhibition in data set [2] came out at 40.3%. The minimum inhibitory concentration (MIC) in the data set on Saccharomyces cerevisiae [3] amounted to 10 µg/mL (≈ 39.6 µM); with Staphylococcus aureus [4], 15 µg/mL (≈ 59.5 µM); against Pseudomonas aeruginosa [5] it was 10 µg/mL (≈ 39.6 µM); against Bacillus subtilis [6], 15 µg/mL (≈ 59.5 µM); in the data set with Escherichia coli [7] it was 10 µg/mL (≈ 39.6 µM). Moreover, the zone of inhibition at 100 µg/disc with Saccharomyces cerevisiae [8] was found to be 16 mm; in the data set on Staphylococcus aureus [9], 12 mm; in the data set with Bacillus subtilis [11], 13 mm; in the data set on Escherichia coli [12], 14 mm. Moreover, in the data set with Pseudomonas aeruginosa [10], the “diameter of the inhibition zone (DIZ)” value is 16 mm.
`N=C(N)c1ccc(-c2ccc(-c3ccco3)o2)nc1` [6-(2,2'-BIFURAN-5-YL)NICOTINAMIDINE]: the result in the data set on Escherichia coli [1] was Active. The Activity entry on Albumin is recorded as “Not Active”. Besides, the inhibition in data set [2] is 44.6%. Further, the MIC amounted to 10 µg/mL (≈ 39.5 µM) with Saccharomyces cerevisiae [3]; 15 µg/mL (≈ 59.2 µM) with Staphylococcus aureus [4]; 15 µg/mL (≈ 59.2 µM) against Pseudomonas aeruginosa [5]; 15 µg/mL (≈ 59.2 µM) in the data set with Bacillus subtilis [6]; 15 µg/mL (≈ 59.2 µM) against Escherichia coli [7]. In addition, the zone of inhibition at 100 µg/disc with Saccharomyces cerevisiae [8] came out at 12 mm; in the data set with Staphylococcus aureus [9], 6 mm; in the data set with Bacillus subtilis [11], 7 mm; with Escherichia coli [12], 9 mm. The “diameter of the inhibition zone (DIZ)” value in the data set with Pseudomonas aeruginosa [10] is given as 7 mm.
`N=C(N)c1ccc(-c2ccc(-c3cccs3)s2)nc1` [6-(2,2'-BITHIOPHENE-5-YL)NICOTINAMIDINE]: the result in the data set on Escherichia coli [1] was Active. In addition, the Activity entry on Albumin is “Active”; in data set [13] it was 58.2%. The inhibition in data set [2] was determined as 51.4%. For the same compound, the minimum inhibitory concentration (MIC) in the data set with Saccharomyces cerevisiae [3] was found to be 5 µg/mL (≈ 17.5 µM); with Staphylococcus aureus [4], 15 µg/mL (≈ 52.6 µM); in the data set on Pseudomonas aeruginosa [5] it was 15 µg/mL (≈ 52.6 µM); against Bacillus subtilis [6], 15 µg/mL (≈ 52.6 µM); against Escherichia coli [7] it was 10 µg/mL (≈ 35 µM). Moreover, the zone of inhibition at 100 µg/disc stood at 14 mm with Saccharomyces cerevisiae [8], 10 mm in the data set with Staphylococcus aureus [9], 7 mm in the data set with Bacillus subtilis [11] and 10 mm with Escherichia coli [12]. For the same compound, the “diameter of the inhibition zone (DIZ)” value in the data set with Pseudomonas aeruginosa [10] was found to be 9 mm.
For the compound `N#Cc1ccc(-c2ccc(-c3cccs3)s2)cc1` [4-(2,2'-BITHIOPHEN-5-YL)BENZONITRILE], in the data set on Escherichia coli [1], the outcome was Active. The Activity result at Albumin is “Active”; in [13] it was 61.8%. In addition, the inhibition in data set [2] was found to be 57.8%. The MIC in the data set with Saccharomyces cerevisiae [3] amounted to 10 µg/mL (≈ 37.4 µM); in the data set on Staphylococcus aureus [4] it was 20 µg/mL (≈ 74.8 µM); in the data set on Pseudomonas aeruginosa [5] it was 10 µg/mL (≈ 37.4 µM); with Bacillus subtilis [6], 20 µg/mL (≈ 74.8 µM); in the data set with Escherichia coli [7] it was 15 µg/mL (≈ 56.1 µM). Further, the zone of inhibition at 100 µg/disc in the data set on Saccharomyces cerevisiae [8] came out at 13 mm; in the data set on Staphylococcus aureus [9] it was 9 mm; in the data set with Bacillus subtilis [11] it was 12 mm; with Escherichia coli [12], 10 mm. Further, the “diameter of the inhibition zone (DIZ)” value in the data set on Pseudomonas aeruginosa [10] is reported as 12 mm.
`CC1(C)S[C@@H]2[C@H](NC(=O)[C@H](N)c3ccccc3)C(=O)N2[C@H]1C(=O)O` [AMPICILLIN]: the MIC against Saccharomyces cerevisiae [3] stood at 7.5 µg/mL (≈ 21.5 µM); against Staphylococcus aureus [4], 10 µg/mL (≈ 28.6 µM); in the data set with Pseudomonas aeruginosa [5], 15 µg/mL (≈ 42.9 µM); against Bacillus subtilis [6], 15 µg/mL (≈ 42.9 µM); in the data set with Escherichia coli [7], 10 µg/mL (≈ 28.6 µM). Also, the zone of inhibition at 100 µg/disc was determined as 17 mm with Saccharomyces cerevisiae [8], 12 mm in the data set with Staphylococcus aureus [9], 18 mm in the data set on Bacillus subtilis [11] and 16 mm in the data set on Escherichia coli [12]. For the same compound, the “diameter of the inhibition zone (DIZ)” value in the data set on Pseudomonas aeruginosa [10] was determined as 12 mm.
Consider `N#Cc1ccc(-c2ccc(-c3cccs3)s2)nc1` [6-(2,2'-BITHIOPHEN-5-YL)NICOTINONITRILE], for which the outcome with Escherichia coli [1] was Active. Further, the Activity result is “Not Active” on Albumin and 55.4% in data set [13]. The inhibition in data set [2] worked out at 52.9%. Besides, the MIC in the data set with Saccharomyces cerevisiae [3] came to 2.5 µg/mL (≈ 9.32 µM); in the data set with Staphylococcus aureus [4], 15 µg/mL (≈ 55.9 µM); in the data set with Pseudomonas aeruginosa [5], 7.5 µg/mL (≈ 27.9 µM); against Bacillus subtilis [6], 10 µg/mL (≈ 37.3 µM); against Escherichia coli [7], 15 µg/mL (≈ 55.9 µM). For the same compound, the zone of inhibition at 100 µg/disc in the data set with Saccharomyces cerevisiae [8] was 19 mm; with Staphylococcus aureus [9], 13 mm; in the data set with Bacillus subtilis [11], 12 mm; in the data set with Escherichia coli [12] it was 13 mm. Also, the “diameter of the inhibition zone (DIZ)” value in the data set on Pseudomonas aeruginosa [10] stood at 15 mm.
Turning to `N#Cc1ccc(-c2ccc(-c3ccco3)o2)nc1` [6-(2,2'-BIFURAN-5-YL)NICOTINONITRILE], the outcome with Escherichia coli [1] was Active. Besides, on Albumin, the Activity entry is listed as “Not Active”. Besides, the inhibition in data set [2] was 34.9%. Also, the MIC against Saccharomyces cerevisiae [3] came to 2 µg/mL (≈ 8.47 µM); with Staphylococcus aureus [4], 2.5 µg/mL (≈ 10.6 µM); with Pseudomonas aeruginosa [5], 5 µg/mL (≈ 21.2 µM); against Bacillus subtilis [6] it was 5 µg/mL (≈ 21.2 µM); against Escherichia coli [7], 7.5 µg/mL (≈ 31.7 µM). Besides, the zone of inhibition at 100 µg/disc in the data set on Saccharomyces cerevisiae [8] came to 20 mm; with Staphylococcus aureus [9], 17 mm; with Bacillus subtilis [11], 16 mm; in the data set on Escherichia coli [12], 14 mm. Also, the “diameter of the inhibition zone (DIZ)” value with Pseudomonas aeruginosa [10] amounted to 16 mm.
